# Patent US20060063930A1, “Compositions and methods comprising proteinase activated receptor antagonists” (priority 2004, published 2006)
# Structures can show the parent of a compound that is named as a salt.
# Tested on: PAR-2
# Test: Inhibition of PAR-2 activating peptide (AP2) calcium signaling in cells pretreated with antagonist
# Type: cell-based, human
# Parameters: key to PAR-2 AP2 Signaling Treated/Control (T/C) / PAR-2 AP2 Signaling Treated/Control: AUC of calcium mobilization, treated ÷ control wells
# Details: mimetic antagonists; AUC of calcium mobilization treated/control; initially screened at 1 mM compound
# Protocol: In order to assess the potential of peptides and molecules selected above to block PAR-2 signaling, cells were pretreated with potential antagonist peptides for a predetermined amount of time and were subsequently treated with various GPCR agonists. Confluent Lewis lung carcinoma (LLC) cells were loaded for 30-60 minutes with the fluorescent dye Fluo-4. Final concentration 4 uM Fluo-4, 0.02% pluronic acid in physiological buffer. Cells were then washed with assay buffer, (HBSS containing 1 mM CaCl2, 1 mM MgSO4, and 2.5 mM probenecid). Cells were stimulated with various doses of PAR-2 activating peptide, PAR-1 activating peptide or ATP. Fluorescence was monitored using a Wallac 1470 fluorescent plate reader. (See Al-ani et. al Journal of Pharmacology and Experimental Therapeutics 290:2, 753-760). Additional compound screening was performed using U87-MG human glioma cells. In this assay cells were labeled with FLIPR Calcium 3 dye (Component A), which was dissolved in 10 mls of Assay Buffer without Probenecid. Loading buffer was prepared by diluting Component A with an additional 90 mls of Assay Buffer without Probenecid, giving a total volume of a 100 ml. For plate loading, 11 mls of FLIPR Calcium 3 dye (Component A) is placed into a 15 ml conical tube+110 μl of 250 mM Probenecid, at a final in-well working volume of 2.5 mM. Finally, 50 μl of Calcium 3 dye was added wells containing 100 μl media, and incubated 1 hr, 37° C., 5% CO2. Calcium signaling was then measured using a Flexstation II (Molecular Devices) following manufacturer's instructions.
# Potential antagonist compounds were initially screened at 1 mM compound concentration. Those compounds with activity were then subjected to additional confirmatory testing. Activity is reported as treated/controlled (T/C) where the area under the curve (AUC) of calcium mobilization plots in treated wells is divided by the AUC of calcium mobilization plots in control wells to generate a measure of inhibition.
row,SMILES,PAR-2 AP2 Signaling Treated/Control
1,"CC(C)CNC(=O)[C@@H]1CC[C@@H](NC(=O)CCCCCN)C1 [ENMD-1504, N-isobutyl-3R-(6-aminohexanamido)-cyclopentane-1R-carboxamide]",0.71
2,"NCCCCCC(=O)N[C@@H]1CC[C@H](C(=O)NCC2CCCCC2)C1 [ENMD-1505, N-cyclohexylmethyl-3S-(6-aminohexanamido)-cyclopentane-1R-carboxamide]",0.19
3,"NCCCCNC(=O)c1ccc(CCC2CCCCC2)cc1 [ENMD-1509, N-(4-aminobutyl)-4-(2-cyclohexylethyl)-benzamide]",0.71
4,"NCCCCNC(=O)c1ccc(NC(=O)C2CCCCC2)cc1 [ENMD-1511, N-(4-aminobutyl)-4-(cyclohexanecarboxamido)-benzamide hydrochloride]",0.13
5,"NCCCCCC(=O)NC1CN(C(=O)CC2CCCCC2)C1 [ENMD-1513, N-[1-(2-cyclohexylacetyl)azetidin-3-yl]-6-aminohexanamide]",0.97
6,"NCCCCCC(=O)N1CC(NC(=O)CC2CCCCC2)C1 [ENMD-1514, 2-cyclohexylacetamid-N-(6-amino-1-hexanoylazetidin-3-yl)]",0.53
7,"CC(C)CC(=O)N1CC(NC(=O)CCCCCN)C1 [ENMD-1515, N-[1-(3-methylbutanoyl)azetidin-3-yl]-6-aminohexanamide]",0.65
8,"CC(C)CC(=O)NC1CN(C(=O)CCCCCN)C1 [ENMD-1516, N-(6-amino-1-hexanoylazetidin3-yl)-3-methylbutanamide]",0.87
9,"CC(C)CCn1c(=O)n(CCCCCCN)c2ccccc21 [ENMD-1517, 1-(6-aminohexyl)-3-[(3-methyl)butyl]benzimidazol(2)-one]",0.52
10,"NCCCCCCn1c(=O)n(CCC2CCCCC2)c2ccccc21 [ENMD-1518, 1-(6-aminohexyl)-3-[(2-cyclohexyl)ethyl]benzimidazol-(2)-one]",0.58
11,"CC(C)CCc1cn(CCCCCCN)nn1 [ENMD-1519, 1-(6-aminohexyl)-4-(3-methylbutyl)-1,2,3-triazole]",0.65
12,"NCCCCCCn1cc(CCC2CCCCC2)nn1 [ENMD-1520, 1-(6-aminohexyl)-4-(2-cyclohexylethyl)-1,2,3-triazole]",0.36
13,"NCCCCCCNC(=O)C1CN(C(=O)CC2CCCCC2)CCO1 (stereo not drawn) [ENMD-1521, 4-(2-Cyclohexyl-acetyl)-morpholine-2-carboxylic acid (6-amino-hexyl)-amide]",1.01
14,"CC(C)CC(=O)N1CCOC(C(=O)NCCCCCCN)C1 (stereo not drawn) [ENMD-1522, 4-(3-Methyl-butyryl)-morpholine-2-carboxylic acid (6-amino-hexyl)-amide]",1.00
15,"NCCCCCC(=O)N1CCOC(C(=O)NCC2CCCCC2)C1 (stereo not drawn) [ENMD-1523, 4-(6-Amino-hexanoyl)-morpholine-2-carboxylic acid cyclohexylmethyl-amide]",0.54
16,"CC(C)CNC(=O)C1CN(C(=O)CCCCCN)CCO1 (stereo not drawn) [ENMD-1524, 4-(6-Amino-hexanoyl)-morpholine-2-carboxylic acid isobutyl-amide]",0.73
17,"CC(C)CNc1nc2ccc(C(=O)NCCCCCCN)cc2[nH]1 [ENMD-1525, 2-Isobutylamino-3H-benzoimidazole-5-carboxylic acid (6-amino-hexyl)-amide]",0.52
18,"NCCCCCCNC(=O)c1ccc2nc(NCC3CCCCC3)[nH]c2c1 [ENMD-1526, 2-(Cyclohexylmethyl-amino)-3H-benzoimidazole-5-carboxylic acid (6-amino-hexyl)-amide]",0.64
19,"CC(C)CNC(=O)c1ccc(-c2ccc(NC(=O)CCCCCN)cc2)cc1 [ENMD-1527, 4′-(6-amino-hexanoylamino)-biphenyl-4-carboxylic acid isobutyl-amide]",0.64
20,"CC(C)CNC(=O)c1ccc(-c2ccc(NC(=O)CCCCCN(C)C)cc2)cc1 [ENMD-1529, 4′-(6-Dimethylamino-hexanoylamino)-biphenyl-4-carboxylic acid isobutyl-amide]",0.35
21,"CC(C)CNC(=O)c1cc(NC(=O)CCCCCN)[nH]n1 [ENMD-1533, 5-(6-Amino-hexanoylamino)-1H-pyrazole-3-carboxylic acid isobutyl-amide]",0.68

row,SMILES,PAR-2 AP2 Signaling Treated/Control
1,"NCCCCCC(=O)Nc1cc(C(=O)NCC2CCCCC2)n[nH]1 [ENMD-1534, 5-(6-amino-hexanoylamino)-1H-pyrazole-3-carboxylic acid cyclohexylmethyl-amide]",0.44
2,"O=C(Cc1cn(CCCCN2C(=O)c3ccccc3C2=O)cn1)NC1CCCCC1 [ENMD-1535, N-cyclohexyl-2-(1-(4-(1,3-dioxoisoindolin-2-yl)butyl)-1H-imidazol-4-yl)acetamide]",0.46
3,"CC(C)CNC(=O)[C@H]1CC[C@@H](NC(=O)CCCCCN)C1 [ENMD-1536, N-isobutyl-3S-(6-aminohexanamido)-cyclopentane-1R-carboxamide]",0.42
4,"CC(C)Cn1cccc1C(=O)NCCCCCCN [ENMD-1537, N-(6-aminohexyl)-1-(2-methylpropyl)-2-pyrrolecarboxamide]",0.91
5,NCCCCNC(=O)c1ccc(NCC2CCCCC2)nc1 [ENMD-1538],0.48
6,"CC(C)CCN1C(C(=O)NCCCCCCN)CCS1(=O)=O (stereo not drawn) [ENMD-1539, N-(isoamyl)isothiasolidine-1,1-dioxide-3-carboxylic acid-6-aminohexylamide]",0.25
7,"NCCCCCCNC(=O)c1cccn1CC1CCCCC1 [ENMD-1540, N-(6-aminohexyl)-1-(2-cyclohexylmethyl)-2-pyrrolecarboxamide]",0.05
8,CC(C)CNc1ccc(C(=O)NCCCCN)cn1 [ENMD-1541],0.65
9,NCCCCNc1ccc(C(=O)NCC2CCCCC2)cn1 [ENMD-1543],0.55
10,"NCCCCCCN1C(C(=O)NCCC2CCCCC2)CCS1(=O)=O (stereo not drawn) [ENMD-1545, N-(6-aminohexyl)isothiazolidine-1,1-dioxide-3-carboxylic acid (2-cyclohexyl)ethylamide]",0.35
11,"CC(C)CCNC(=O)C1CCS(=O)(=O)N1CCCCCCN (stereo not drawn) [ENMD-1546, N-(6-aminohexyl)isothiazolidine-1,1-dioxide-3-carboxylic acid isoamylamide]",0.97
12,"NCCCCCCNC(=O)C1CCS(=O)(=O)N1CCC1CCCCC1 (stereo not drawn) [ENMD-1547, N-(2-cyclohexyl)ethylisothiasolidine-1,1-dioxide-3-carboxylic acid-6-aminohexylamide]",0.24
13,"CC(C)CC(=O)Nc1nc(CC(=O)NCCCCCN)cs1 [ENMD-1549, N-{4-[(5-Amino-pentylcarbamoyl)-methyl]-thiazol-2-yl}-3-methyl-butyramide]",0.26
14,"CC(C)CC(=O)Nc1cc(C(=O)NCCCCCCN)n[nH]1 [ENMD-1550, 5-(3-methyl-butyrylamino)-1H-pyrazole-3-carboxylic acid (6-amino-hexyl)-amide]",0.63
15,"NCCCCCCNC(=O)c1cc(NC(=O)CC2CCCCC2)[nH]n1 [ENMD-1551, 5-(2-cyclohexyl-acetylamino)-1H-pyrazole-3-carboxylic acid (6-amino-hexyl)-amide]",0.66
16,"CC(C)CCc1ccc(C(=O)NCCCCN)cc1 [ENMD-1552, N-(4-aminobutyl)-4-isopentyl-benzamide]",0.10
17,"NCCCCCCNc1nc2ccc(C(=O)NCC3CCCCC3)cc2[nH]1 [ENMD-1553, 2-(6-Amino-hexylamino)-3H-benzoimidazole-5-carboxylic acid cyclohexylmethyl-amide]",0.81
18,"CC(C)CNC(=O)Cc1csc(NC(=O)CCCCCN)n1 [ENMD-1554, 6-amino-hexanoic acid [4-(isobutylcarbamoyl-methyl)-thiazol-2-yl]-amide]",0.44
19,"CC(C)CNC(=O)c1cc(CNC(=O)CCCCN)on1 [ENMD-1555, 5-[(5-amino-pentanoylamino)-methyl]-isoxazole-3-carboxylic acid isobutyl-amide]",0.86
20,"CC(C)CC(=O)NCc1cc(C(=O)NCCCCCCN)no1 [ENMD-1556, 5-[(3-methyl-butyrylamino)-methyl]-isoxazole-3-carboxylic acid (6-amino-hexyl)-amide]",0.57
21,"NCCCCCCNC(=O)c1cc(CNC(=O)CC2CCCCC2)on1 [ENMD-1557, 5-[(2-Cyclohexyl-acetylamino)-methyl]-isoxazole-3-carboxylic acid (6-amino-hexyl)-amide]",0.52
